Some results are limits rather than exact numbers.

The subject of one series is iPSC-derived mDA neurons. Put plainly: mDA neuron marker expression (NURR1, TH) as sign of acute toxicity. The series is classed as cell-based, human. Particulars: treatment of mDA neurons. Here is the method:
Cells were fixed in 4% paraformaldehyde for 15 minutes. Blocking was performed in phosphate-buffered saline supplemented with 1% BSA, and 0.3% Triton X-100 for 30 minutes to 1 hour. Cells were stained overnight at 4° C. with primary antibodies diluted in blocking buffer. Following several washes, cells were stained with appropriate Alexa Fluor-labeled secondary antibodies (Molecular Probes, Carlsbad, Calif.) at 1:500 in blocking buffer for 30 minutes to 3 hours at room temperature. Cells were counterstained with 4′,6-diamidino-2-phenylindole (DAPI; Thermo Fisher, Rockford, Ill.) to visualize nuclei. Images were acquired with an Olympus IX81 microscope using a Hamamatsu ORCA CCD camera.
Cells were collected with a cell lifter (Corning, Tewksbury, Mass.) in ice-cold phosphate-buffered saline without calcium or magnesium (PBS−/−). Cell pellets were rapidly frozen on ethanol and dry ice and stored at −80° C. Cell pellets were thawed on ice and resuspended in 50-200 μl RIPA lysis buffer (50 mM Tris-HCl pH 8.0, 120 mM NaCl, 6 mM EDTA, 0.5% NP-40) with 1% sodium dodecyl sulfate (SDS). Cell suspensions were vortexed at 15-minute intervals during a 45-minute incubation on ice. Lysates were isolated following a 10,000 rpm spin for 10 minutes at 4° C. 20-40 μg samples were further diluted with 4× Laemmli sample buffer, boiled for 5 minutes at 95° C., and loaded onto a NuPAGE 4-12% Bis-Tris precast gel (Life Technologies). Gel electrophoresis was performed at 100 V for 2 hours. Gels were transferred to a methanol activated PVDF membrane using the XCell II Blot Module (Life Technologies) according to the manufacturer's instructions. Blots were blocked in 3% bovine serum albumin (BSA) in Tris buffered saline plus 0.1% Tween-20 (TBS-T) for 45 minutes at room temperature. […]
Following several washes with TBS-T, blots were incubated in appropriate HRP-labeled secondary antibodies (Jackson ImmunoResearch, West Grove, Pa.) for 1 hour at room temperature. […] Densitometry quantification was performed using ImageJ on blots from three independent experiments.

Series [1] relates to proliferating cells in iPSC-derived mDA neuron cultures. Put plainly: Mitomycin C treatment of iPSC-derived mDA neuron cultures. Particulars: 1 day following the final day 30 replating. The series is classed as cell-based, human. Here is the method: One to two days after plating, cells were treated with 1 μg/ml mitomycin C (Tocris) for 1 hour to kill any remaining proliferating contaminants. iPSC-derived mDA neurons were fed every 2 to 3 days and maintained without passaging until the desired timepoint for a given experiment. PO, laminin and fibronectin were added to the medium every 7-10 days to prevent neurons from lifting off.

The subject of series [2] is doxycycline (dox)-inducible fibroblast line. Put plainly: Reversibility of progerin-induced nuclear changes in doxycycline-inducible fibroblast line. The series is classed as cell-based. The conditions noted are these: following re-addition of doxycycline.
A further series concerns motor neurons (MNs). Particulars: after trophic factor withdrawal (Yang et al.); cited from earlier work.

For the molecule `N#CC(C#N)=NNc1cccc(Cl)c1` [CCCP, carbonyl cyanide 3-chlorophenylhydrazone, reference compound], in the series on iPSC-derived mDA neurons, the “mDA neuron marker expression after mitochondrial toxin” value was “rapidly induces mDA neuron marker loss”.
In the case of `CO[C@@]12[C@H](COC(N)=O)C3=C(C(=O)C(C)=C(N)C3=O)N1C[C@@H]1N[C@@H]12` [Mitomycin C, mitomycin C], in series [1], the post-mitotic neurons entry was “unaffected” and the remaining proliferating cells entry is on record as “helped to eliminate the remaining proliferating cells”.
With `C[C@H]1c2cccc(O)c2C(=O)C2=C(O)[C@]3(O)C(=O)C(C(N)=O)=C(O)[C@@H](N(C)C)[C@@H]3[C@@H](O)[C@@H]21` [doxycycline], the “time to reversal of progerin-induced changes in nuclear morphology” value in series [2] is recorded as no more than 10 days.
`O=C1Cc2c([nH]c3ccc(Br)cc23)-c2ccccc2N1` [kenpaullone]: the “survival of MNs” value in the series on motor neurons (MNs) is “impressive ability to prolong the healthy survival of MNs”.

The values above are taken from patent publication US9963674B2, “Age-modified cells and methods for making age-modified cells” (Memorial Sloan-Kettering Cancer Center, priority 2013, dated 2018).
